Measurements from patent US5847148A, “Thiadiazole derivatives useful for the treatment of diseases related to connective tissue degradation” (Pharmacia & Upjohn Company, priority 1997, dated 1998).

Each compound was assayed against Stromelysin (Homo sapiens, UniProt P08254) (assay: MMP (stromelysin) inhibition, particle concentration fluorescence assay). Conditions: in vitro; fluorescein/biotin substrate; MMP buffer pH 7.5; room temperature; 15 minutes preincubation, 1-3 hours; read-out: Stromelysin Ki (MMP Inhibition Constants).
Chain of Stromelysin (P08254 100-477): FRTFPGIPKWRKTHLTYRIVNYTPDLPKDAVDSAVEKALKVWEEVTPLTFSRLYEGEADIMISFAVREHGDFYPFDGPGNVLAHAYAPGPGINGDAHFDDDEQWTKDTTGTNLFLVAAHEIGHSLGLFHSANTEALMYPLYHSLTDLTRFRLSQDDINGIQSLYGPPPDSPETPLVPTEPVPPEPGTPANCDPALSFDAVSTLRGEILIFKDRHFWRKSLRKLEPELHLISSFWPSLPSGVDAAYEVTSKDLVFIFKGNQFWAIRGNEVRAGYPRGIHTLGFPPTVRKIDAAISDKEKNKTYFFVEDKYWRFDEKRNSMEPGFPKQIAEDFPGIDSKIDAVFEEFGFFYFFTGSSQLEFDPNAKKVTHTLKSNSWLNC
Type: biochemical
Description: Inhibitory activity is evaluated in one or more of the MMP enzymes (stromelysin, gelatinase, and collagenase) in vitro using particle concentration fluorescence assay. An inhibitor binds to MMP enzymes which prevents the degradation of a substrate by stromelysin, gelatinase, or collagenase. The substrate has attached to it a fluorescein and a biotin moiety. The intact substrate then binds to an avidin-coated particle via the biotin moiety. Once the particle is washed and dried, a fluorescent signal is generated since the fluorescent group is attached to the particle. Without an inhibitor present, the substrate is degraded by MMP enzymes and the fluorescein group is removed, therefore, no fluorescent signal can be detected. Testing compounds are dissolved in DMSO to the desired concentration, then the solutions are diluted to 1:5 with MMP buffer (50 mM Tris-HCl, pH 7.5; 150 mM NaCl; 0.02% NaN3). Serial two-fold dilutions of each compound are prepared. A concentrated, activated enzyme solution is transferred into each plate of the testing compounds, and the mixture is incubated at room temperature for 15 minutes. […] At this point, the substrate mixture is mixed with 0.1% avidin-coated polystyrene particles. After 15 minutes, the fluorescence values are measured following filtration and washing of the beads. Ki values are then calculated.
Work on `CNC(=O)[C@@H](NC(=O)Nc1n[nH]c(=S)s1)[C@@H](C)OC(C)(C)C` [Example 75, 2-[[[(4,5-Dihydro-5-thioxo-1,3,4-thiadiazol-2-yl)amino]carbonyl]amino]-3-(1,1-dimethylethoxy)-N-methyl-(S)-butanamide] yielded a Ki of 0.67 µM. `COC(=O)[C@H](COC(C)(C)C)NC(=O)Nc1n[nH]c(=S)s1` [Example 67, N-[[(4,5-Dihydro-5-thioxo-1,3,4-thiadiazol-2-yl)amino]carbonyl]-O-(1,1-dimethylethoxy)-L-serine methyl ester] was tested, and the Ki was 6.7 µM. For `CNC(=O)[C@@H](NC(=O)Nc1n[nH]c(=S)s1)[C@@H](C)OCc1ccccc1` [Example 66, 2-[[[(4,5-Dihydro-5-thioxo-1,3,4-thiadiazol-2-yl)amino]carbonyl]amino]-N-methyl-3-(phenylmethoxy)-(2S)-butanamide], the Ki was 0.76 µM.
